# Measured values published in patent US20110107445A1, “Efficient Insertion of DNA Into Embryonic Stem Cells” (ITI Scotland Limited, priority 2008, published 2011).
# Assays:
# CYP3A4 [1] = target: T1, CYP3A4 (Homo sapiens, UniProt P08684); assay: In vitro oxidation of 7-BQ by pooled human liver microsomes; type: in vitro ADME
# T1 construct: tissue Gentest 452172; host or cells: pooled (male) human liver microsomes
# Description: FIG. 24. 7-BQ oxidation by liver (A) and intestinal (B) microsomes from C57BL/6J, hCYP3A4/3A7_Cyp3a KO, hCYP3A4_Cyp3a KO and Cyp3a KO mice Data generated according to CXR approved Laboratory Method Sheet Fluor-0005. Apart from bars for untreated transgenic/knock-out mice, which represent a single measurement, data are mean±SD (n=3 for C57BL/6J microsomes; n=2 for microsomes from PCN treated transgenic strains and human liver microsomes (HLM)). Activities of samples from treated hCYP3A4/3A7_Cyp3a KO and hCYP3A4_Cyp3a KO mice were compared to that from Cyp3a KO line with an unpaired t test (two tailed P values).
# CYP3A4 [2] = type: in vitro ADME, mouse
# Description: FIG. 24. 7-BQ oxidation by liver (A) and intestinal (B) microsomes from C57BL/6J, hCYP3A4/3A7_Cyp3a KO, hCYP3A4_Cyp3a KO and Cyp3a KO mice Data generated according to CXR approved Laboratory Method Sheet Fluor-0005. Apart from bars for untreated transgenic/knock-out mice, which represent a single measurement, data are mean±SD (n=3 for C57BL/6J microsomes; n=2 for microsomes from PCN treated transgenic strains and human liver microsomes (HLM)). Activities of samples from treated hCYP3A4/3A7_Cyp3a KO and hCYP3A4_Cyp3a KO mice were compared to that from Cyp3a KO line with an unpaired t test (two tailed P values). 3 homozygous male mice per strain were used throughout. Two mice were administered with 5-Pregnen-3β-ol-20-one-16α-carbonitrile (PCN) (100 mg/kg/2 daily doses/IP) and one mouse was given the vehicle (corn oil). […] Wild type (WT) and Cyp3a KO animals were included as controls (n=3 for WT, pooled; n=1-2 for Cyp3a KO). Animals were sacrificed 24 hrs post final dose. Liver and duodenal microsomes were analysed for CYP3A4 expression and catalytic activity.
# CYP3A4 [3] = assay: In vitro DBF oxidation by mouse liver and intestinal microsomes; type: in vitro ADME
# Procedure: The total reaction volume was 1 mL. Fluorescein fluorescence was recorded using an F-4500 fluorescence spectrophotometer (Hitachi), excitation 485 nm and emission 538 nm. Fluorescein standard (10 μL, 25 μM) was injected into the reaction cuvette approximately 150 sec after the addition of NADPH. Slopes of the time course of the product accumulation were calculated using FL-Solution 2.0 (Hitachi).
# [4] = Body and liver weights of PCN treated mice; type: in vivo, mouse; conditions: for Liver per body weight, percentage of C57BL/6J from the same treatment group / Liver per body weight, percentage of control group of the same strain / Body weight / Liver per body weight / Liver weight: PCN 100 mg/kg daily for 2 days IP; for Body weight / Liver per body weight / Liver weight: mean ± SD
# Procedure: (§1) The mice received either corn oil (vehicle) or PCN 100 mg/kg, daily, for 2 days by intraperitoneal (IP) injection according to the experimental design described in Table 3. Dosing solutions were prepared at CXR Biosciences on the day of dosing by adding the vehicle (corn oil) to the requisite quantity of the PCN. The concentration of PCN was the concentration of supplied chemical, without any correction for purity. Excess dosing solution was stored at approximately 2-8° C. for possible future analysis. The volume of dosing solution was 10 mL/kg bodyweight. Approximately 24 h after the second dose, the mice were euthanized using a rising concentration of CO2. Blood was collected at termination by cardiac puncture into lithium/heparin coacted tubes for plasma preparation.
# The body weight of each mouse was recorded at the start of the study and immediately prior to termination. Bodyweights were recorded electronically or manually and records of these weights were stored in the study file.
# In order to weigh the liver, the gall bladder was removed, and then the liver was removed and weighed. Two samples of liver (approximately 5 mm^3) were immediately flash frozen in a cryovial in liquid nitrogen then stored at approximately −70° C. for RNA analysis. The remaining liver was weighed and immediately used for subcellular fractionation to homogenates and microsomes.
# [5] = Plasma clinical chemistry of PCN treated mice; type: in vivo, mouse; conditions: PCN treated hCYP3A4_Cyp3a KO mice compared to treated C57BL/6J mice
# Procedure: as §1
# Plasma samples were produced by removing red blood cells by centrifugation (2,000-3,000 rpm for 10 min at 8-10° C.). The supernatant (plasma) was stored on ice prior to clinical chemistry analysis. The pellet was discarded. Plasma samples from all animals were analysed for triglycerides, alanine aminotransferase, alkaline phosphatase, aspartate aminotransferase, albumin, cholesterol, bilirubin (total and direct), high and low density lipoproteins using the COBAS Integra 400+ (Roche), and the results are shown in FIGS. 19-21. […]
# CYP3A4 [6] = assay: Western blot of liver and intestinal microsomes for CYP3A4 protein; type: in vivo, mouse
# Procedure: as §1
# The duodenum (first 10 cm from the base of the stomach) was removed and flushed with ice cold PBS containing a protease inhibitor cocktail (Roche). The first 2 cm was but and placed into a 2 ml cryvial containing 1 ml of TRIZOL (Sigma), flash frozen immediately, and then stored at approximately −70° C. for Taqman® analysis. The remainder of the duodenum was placed in a 1 ml cryovial and flash frozen immediately, and then stored at approximately −70°.
# Liver microsomes were produced by preparing subcellular fractions from fresh livers. The livers were processed as described above to homogenates and microsomes. Aliquots from liver samples were stored at approximately −70° prior to analysis.
# Frozen small intestines were homogenised in SET with protease cocktail inhibitor (Roche) and PMSF (mM) using a Polytron homogeniser. The homogenates were subjected to subcellular fractionation as described above. The microsomal fractions were stored at approximately −70° prior to analysis.
# Liver microsomes from C57BL/6J, hCYP3A4/3A7_Cyp3a KO, hCYP3A4_Cyp3a KO and Cyp3a KO mice were analysed by Western blotting using an antibody specific to CYP3A4 and the results are shown in FIG. 22. There was a clear protein band for CYP3A4 on the Western blot of liver and intestinal microsomes from vehicle treated hCYP3A4/3A7_Cyp3a KO mice. […]
# CYP3A7 mRNA = conditions: mouse, in vivo
# Procedure: 3 homozygous male mice per strain were used throughout. Two mice were administered with 5-Pregnen-3β-ol-20-one-16α-carbonitrile (PCN) (100 mg/kg/2 daily doses/IP) and one mouse was given the vehicle (corn oil). […] Wild type (WT) and Cyp3a KO animals were included as controls (n=3 for WT, pooled; n=1-2 for Cyp3a KO). Animals were sacrificed 24 hrs post final dose. Liver and duodenal microsomes were analysed for CYP3A4 expression and catalytic activity.
# The mice received either corn oil (vehicle) or PCN 100 mg/kg, daily, for 2 days by intraperitoneal (IP) injection according to the experimental design described in Table 3. Dosing solutions were prepared at CXR Biosciences on the day of dosing by adding the vehicle (corn oil) to the requisite quantity of the PCN. The concentration of PCN was the concentration of supplied chemical, without any correction for purity. Excess dosing solution was stored at approximately 2-8° C. for possible future analysis. The volume of dosing solution was 10 mL/kg bodyweight. […]
# For each target gene a reaction with the lowest dCt value was identified and that dCt value was subtracted from all other dCt, giving so-called ddCt (ddCt of the sample with the lowest dCt (endogenous reference) equals 0). Finally, the normalised relative amount of target gene (RQ) was calculated using the following formula: RQ=(2̂(−ddCt))*100 as shown in Table 9.
# T1 sequence (P08684 whole entry): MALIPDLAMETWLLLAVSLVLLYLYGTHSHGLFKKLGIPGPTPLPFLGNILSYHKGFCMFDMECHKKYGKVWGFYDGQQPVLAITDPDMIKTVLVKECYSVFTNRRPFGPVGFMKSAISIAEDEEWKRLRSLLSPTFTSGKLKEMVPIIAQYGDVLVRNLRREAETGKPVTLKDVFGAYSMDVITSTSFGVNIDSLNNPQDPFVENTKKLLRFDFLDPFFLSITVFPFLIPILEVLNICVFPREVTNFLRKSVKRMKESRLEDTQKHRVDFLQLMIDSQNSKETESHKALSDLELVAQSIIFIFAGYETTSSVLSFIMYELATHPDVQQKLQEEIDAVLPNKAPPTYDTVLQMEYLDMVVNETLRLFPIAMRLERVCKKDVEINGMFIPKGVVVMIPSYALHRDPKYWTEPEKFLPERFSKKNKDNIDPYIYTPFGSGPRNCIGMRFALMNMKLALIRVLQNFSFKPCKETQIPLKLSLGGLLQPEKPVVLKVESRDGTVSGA
smiles,measurement,setting,value
"c1ccc(COc2ccc3cccnc3c2)cc1 [7-BQ, 7-benzyloxyquinoline]",7-BQ oxidation reaction rate,CYP3A4 [1],low reaction rate
same,7-BQ oxidation,CYP3A4 [2],marked decrease
same,"7-BQ oxidation, recovery of activity",CYP3A4 [2],small and not statistically significant
O=C(OCc1ccccc1)c1ccccc1-c1c2ccc(=O)cc-2oc2cc(OCc3ccccc3)ccc12 [DBF],DBF oxidation reaction rate,CYP3A4 [3]; hCYP3A4/3A7_Cyp3a KO microsomes compared to hCYP3A4_Cyp3a KO,higher
same,DBF oxidation activity,CYP3A4 [3]; liver and intestinal samples from untreated humanised mice compared to Cyp3a KO,little increase
same,"DBF oxidation activity, difference humanised vs Cyp3a KO",CYP3A4 [3]; samples from the PCN treated groups,significantly more pronounced
"CC(=O)[C@H]1[C@H](C#N)C[C@H]2[C@@H]3CC=C4C[C@@H](O)CC[C@]4(C)[C@H]3CC[C@@]21C [PCN, 5-Pregnen-3β-ol-20-one-16α-carbonitrile]","Liver per body weight, percentage of C57BL/6J from the same treatment group",[4]; C57BL/6J mice,100 ± 2.1 %
same,"Liver per body weight, percentage of control group of the same strain",[4]; C57BL/6J mice,131 ± 2.7 %
same,Body weight,"[4]; C57BL/6J mice, n=3",19.30 ± 0.82 g
same,Liver per body weight,"[4]; C57BL/6J mice, n=3",5.70 ± 0.12 %
same,Liver weight,"[4]; C57BL/6J mice, n=3",1.10 ± 0.06 g
same,liver/body weight ratio,"[4]; C57BL/6J mice, PCN administration vs control",significantly (P<0.001) increased
same,"Liver per body weight, percentage of C57BL/6J from the same treatment group",[4]; Cyp3a KO mice,89 ± 4.4 %
same,"Liver per body weight, percentage of control group of the same strain",[4]; Cyp3a KO mice,121 ± 6.0 %
same,Body weight,"[4]; Cyp3a KO mice, n=2",24.05 ± 1.77 g
same,Liver per body weight,"[4]; Cyp3a KO mice, n=2",5.06 ± 0.25 %
same,Liver weight,"[4]; Cyp3a KO mice, n=2",1.22 ± 0.15 g
same,liver/body weight ratio,"[4]; all treated transgenic mice vs treated wild type, significant (P<0.05) only in Cyp3a KO group",decreased liver/body weight ratio compared to the treated wild type
same,"Liver per body weight, percentage of C57BL/6J from the same treatment group",[4]; hCYP3A4/3A7_Cyp3a KO mice,97 ± 21.1 %
same,"Liver per body weight, percentage of control group of the same strain",[4]; hCYP3A4/3A7_Cyp3a KO mice,120 ± 26.1 %
same,Body weight,"[4]; hCYP3A4/3A7_Cyp3a KO mice, n=2",19.15 ± 0.64 g
same,Liver per body weight,"[4]; hCYP3A4/3A7_Cyp3a KO mice, n=2",5.53 ± 1.20%
same,Liver weight,"[4]; hCYP3A4/3A7_Cyp3a KO mice, n=2",1.06 ± 0.27 g
same,"Liver per body weight, percentage of C57BL/6J from the same treatment group",[4]; hCYP3A4_Cyp3a KO mice,93 ± 4.6 %
same,"Liver per body weight, percentage of control group of the same strain",[4]; hCYP3A4_Cyp3a KO mice,113 ± 5.6 %
same,Body weight,"[4]; hCYP3A4_Cyp3a KO mice, n=2",19.00 ± 0.71 g
same,Liver per body weight,"[4]; hCYP3A4_Cyp3a KO mice, n=2",5.27 ± 0.26%
same,Liver weight,"[4]; hCYP3A4_Cyp3a KO mice, n=2",1.00 ± 0.09 g
same,"plasma level of cholesterol, low and high density lipoproteins, alanine transferase and alkaline phosphatase",[5],statistically significant increases
same,hepatic and intestinal CYP3A4 expression,"CYP3A4 [6]; both humanised lines, treatment with PCN",strong induction
same,intestinal CYP3A4 protein upregulation (Western blot),"CYP3A4 [6]; intestinal microsomes, humanised mice, compared with liver upregulation",less pronounced
same,liver CYP3A4 protein (Western blot),"CYP3A4 [6]; liver microsomes, humanised mice, PCN 100 mg/kg/2 days/IP",strong upregulation
same,7-BQ oxidation activity in response to PCN,CYP3A4 [2],no increase in activity
same,CYP3A7 mRNA (Q-PCR),CYP3A7 mRNA,possible induction of CYP3A7
